Each structure is given as a SMILES string. Where two headings read alike, the source gives them in different places.

A short description of data set [1]: Pharmacokinetic study of [^14C] DHA and unchanged DHA, single i.v. dose. Format: in vivo, rats. How it is done:
Traditional PK studies involve intermittent blood sampling and subsequent determination of drug concentrations in whole blood and plasma. The Culex automated blood sampler provides a way for blood withdrawal at preprogrammed intervals, which is more accurate and less labor intensive. Six rats in the PK group were implanted with a jugular vein catheter under an isofluorane anesthaesia. After the surgery, rats were allowed to recover for 96 hours with free access to food and water. The rats were dosed single i.v. at 3 mg/ml/kg with [^14C] DHA (20 μCi/kg), which was prepared as a 25% cremophore/0.9% saline solution, through the tail vein. […] PK evaluation of [^14C] DHA in plasma and whole blood, as well as unchanged DHA in plasma was conducted in individual rats.
Total radioactivity in the collected tissue samples were quantified in duplicate. Weighed tissue aliquots (~0.2 g) were digested overnight in 2 ml of Solvable® tissue solubilizer (Perkin-Elmer Life and Analytical Sciences, Boston, MA) at 50°C. Coloured samples were decolourized by adding a maximum of 0.2 ml of 30% H2O2 for 30–60 minutes. Scintillation cocktail (Hyonic Fluor; Perkin-Elmer Boston. Massachusetts, USA) was then added and radioactivity determined in a Perkin-Elmer Tri-Carb 3100 TR scintillation spectrophotometer (Packard Instrument Co., Downers Grove, Illinois, USA). Faeces and intestinal contents were thoroughly homogenized before taking aliquots. Plasma was also analysed using the HPLC-ECD system to measure the concentration of unchanged DHA, as described by Li et al.
The analysis of cold DHA in plasma was performed according to a previously described HPLC method with the following modifications: for simultaneous determination of artemisinin and DHA (artemisinin as an internal standard), the Agilent Eclipse XDB-C18 column 5 μm (4.6 × 150 mm) was used with an isocratic mobile phase consisting of 40% acetonitrile: 60% ESA Acid Metabolite A (70–4835) in the reductive mode (-400 mV) for the quantification of DHA. Validation and reproducibility were evaluated and a lower limit of quantitation (LLQ) of 2.31 ng/ml for DHA was determined. The inter- and intra-day coefficient of variation for accuracy and precision were all within ± 10%.
For pharmacokinetics, the concentration-time data of [^14C] DHA in plasma and whole blood collected during the 192 hour treatment period was fitted to a three-compartment open model using a nonlinear, extended least-square fitting procedure (WinNonlin 5.2, Pharsight Corporation, Cary, NC) using weighted (1/concentration) nonlinear regression. The area under the curve (AUC) was determined by the linear trapezoidal rule with extrapolation to infinity based on the concentration of the last time point divided by the terminal rate constant. Extrapolations to time zero were done using zero concentration for intravenous dosing and using C0 values determined from the three-compartment model equation at time zero by i.v. route. Mean clearance rate (CL) was determined by dividing the dose by the AUCinf for i.v. injection. Mean residence time (MRT) was determined by dividing the area under the first moment curve (AUMC) by the AUC. The volume of distribution at steady state (Vss) was calculated as the product of CL and MRT. The concentration-time data of unchanged DHA was fitted to a two-compartment open model. Statistical analysis was conducted with Microsoft Excel using a Student's t-test for dependent samples to compare means of paired and unpaired samples between two groups.

A short description of data set [2]: Mass balance and urinary/faecal elimination of [^14C] DHA. It is filed as in vivo, rats. To be noted: rats i.v. On the procedure:
Metabolic cages were washed with a solution of 2% Count-off® (Perkin-Elmer Life and Analytical Sciences, Boston, Massachusetts, USA) and the volume was measured. Duplicate portions (0.1 ml urine; 1 ml cage rinse) of each sample were radio-assayed after the addition of scintillation cocktail. The weights of individual faecal samples were obtained and the samples were subsequently homogenized in four volumes of de-ionized water. Quadruplicate portions (1.0 ml) of each homogenate were decolourized with 30% hydrogen peroxide, and digested with Solvable® tissue solubilizer. After acidification with glacial acetic acid and addition of scintillation cocktail, samples were assayed for radioactivity. The samples were kept in at -20°C for two weeks prior to analysis.

The next data set has as its system rat plasma proteins. Nature of the data set: Protein binding of [^14C] DHA, equilibrium dialysis, rat plasma. It is filed as in vitro ADME. On the procedure:
(§1) Human blood samples (five men and five women) were freshly obtained from subject volunteers at the Department of Clinical Trials, WRAIR. Rat samples were freshly collected from five male and five female rats. Equilibrium dialysis was performed using Teflon dialysis chambers and Diachema standard membranes as described by Li and Hümpel. The GD-4/90 Equilibrium Dialyzer (MM Developments, Ottawa) contained 20 micro-dialysis cells (2.0 ml/chamber). The molecular weight cutoff for dialysis membranes was 5000 D. Equilibrium was reached after four hours, when cells were rotated at 16 rpm and 37°C. Drugs were dissolved in plasma samples with various concentrations (0.15 – 57800 ng/ml) and all experiments were carried out for five hours.

The next data set deals with human plasma proteins. Nature of the data set: Protein binding of [^14C] DHA, equilibrium dialysis, human plasma. It is filed as in vitro ADME. To be noted: both sexes; undiluted human plasma, 0.15 to 57800 ng/ml, 37°C, five hours; read-out: plasma protein binding percentage. On the procedure: as §1
For data set [3] the following is noted: rats; cited from earlier work.
Setting [4] is: unchanged DHA in plasma, rats single i.v. 3 mg/kg.

As to `C[C@H]1[C@@H](O)O[C@@H]2O[C@@]3(C)CC[C@H]4[C@H](C)CC[C@@H]1[C@@]24OO3` [DHA, 10'dihydro-artemisinin], in data set [1] (rat, iv, unchanged DHA in plasma, two-compartment, rats single i.v. 3 mg/kg), the area under the curve AUC(0-inf) amounted to 933 ± 125 ng·h/mL. Besides, the mean residence time (MRT) in data set [1] (rat, iv, unchanged DHA in plasma, two-compartment, rats single i.v. 3 mg/kg, read-out: MRT) came out at 29.4 ± 7.2 min. The Vd in data set [1] (rat, iv, unchanged DHA in plasma, two-compartment, rats single i.v. 3 mg/kg, read-out: Vss) came out at 1.66 ± 0.54 L/kg. The exposure (AUC) in data set [1] (rat, iv, unchanged DHA in plasma, rats i.v. 3 mg/kg) was 933 ng·h/mL. The Tmax in data set [1] (rat, iv, unchanged DHA in plasma, rats single i.v. 3 mg/kg, read-out: Tmax) was found to be 1.2 min. In addition, the clearance in data set [1] (rat, plasma, iv, 3 mg/kg, unchanged DHA in plasma, two-compartment, rats single i.v. 3 mg/kg) is 55.8 mL/min/kg. Besides, the maximum concentration (Cmax) was found to be 2000 ± 507 ng/mL in data set [1] (rat, plasma, iv, 3 mg/kg, unchanged DHA in plasma, two-compartment, rats single i.v. 3 mg/kg, read-out: Cmax); 2000 ± 507 ng/mL in data set [1] (rat, plasma, iv, 3 mg/kg, unchanged DHA in plasma, rats single i.v. 3 mg/kg, read-out: Cmax at first peak); 1640 ± 468 ng/mL in data set [1] (rat, plasma, iv, 3 mg/kg, unchanged DHA in plasma, rats single i.v. 3 mg/kg, read-out: Cmax at second peak). Besides, the half-life was 15 ± 2.4 min in data set [1] (rat, plasma, iv, 3 mg/kg, unchanged DHA in plasma, two-compartment, rats single i.v. 3 mg/kg, read-out: t1/2 – alpha (converted)) and 61.8 ± 11.4 min in data set [1] (rat, plasma, iv, 3 mg/kg, unchanged DHA in plasma, two-compartment, rats single i.v. 3 mg/kg, read-out: t1/2 – beta (terminal) (converted)). For the same compound, the “duration of total radioactivity (long-lasting metabolites)” value in data set [1] (rats, plasma, urine and faeces, single i.v. 3 mg/20 μCi/kg) was > 192 h. Besides, the “time to complete elimination of unchanged DHA” value in data set [1] (rats, single i.v. 3 mg/kg) is ≤ 6 h. The compound further gave a CL in data set [1] (unchanged DHA in plasma, two-compartment, rats single i.v. 3 mg/kg, 3 mg/kg) of 55.8337 ± 7.0562 mL/min/kg. For the same compound, the “time of second peak” value is 23 min in data set [1] (unchanged DHA in plasma, rats i.v. 3 mg/kg) and 22.8 min in data set [1] (setting [4]). Also, the “time of first peak” value in data set [1] (setting [4]) stood at 0.02 h. For the same compound, the “elimination via metabolism (hydrolysis and oxidation)” value in data set [2] is 99%. Besides, the “unchanged DHA eliminated by direct excretion from kidneys” value in data set [2] is recorded as < 1 % of dose. For the same compound, the fraction unbound at 5 h in the data set with rat plasma proteins (both sexes, undiluted rat plasma, 0.15 to 57800 ng/ml, 37°C, five hours, read-out: plasma protein binding percentage) was in the range of 0.18 to 0.24; in the data set with human plasma proteins, 0.18 to 0.24. Further, in the data set with rat plasma proteins (rat plasma), the “dependence of binding capacity on drug concentration” value is reported as “not significantly different”.
On to `C[C@H]1[C@H](OC(=O)CCC(=O)O)O[C@@H]2O[C@@]3(C)CC[C@H]4[C@H](C)CC[C@@H]1[C@@]24OO3` [Artesunate], for which the “plasma half-life of unchanged AS, first phase” value in data set [3] is 8.4 min.

(Values after publication PMC2694832, “Pharmacokinetics, tissue distribution and mass balance of radiolabeled dihydroartemisinin in male rats” (Malaria Journal, 2009).)
